Results from the NIST ThermoML archive (doi:10.1021/je100760v).

Assay: osmotic coefficient (dimensionless); mn = molality of the nth substance listed, in mol/kg
Conditions: Liquid, isopiestic method

O.O=C([O-])C(=O)[O-].[K+].[K+] [potassium oxalate monohydrate] + O
Conditions | osmotic coefficient
298.15 K, m1 = 0.2731 | 0.764
298.15 K, m1 = 0.3247 | 0.747
298.15 K, m1 = 0.3721 | 0.742
298.15 K, m1 = 0.4551 | 0.736
298.15 K, m1 = 0.4898 | 0.737
298.15 K, m1 = 0.5836 | 0.735
298.15 K, m1 = 0.7175 | 0.741
298.15 K, m1 = 0.8532 | 0.747
298.15 K, m1 = 0.879 | 0.746
298.15 K, m1 = 1.163 | 0.76
298.15 K, m1 = 1.224 | 0.76
298.15 K, m1 = 1.403 | 0.77
298.15 K, m1 = 1.446 | 0.771
298.15 K, m1 = 1.553 | 0.775
298.15 K, m1 = 1.631 | 0.777
298.15 K, m1 = 1.763 | 0.782
298.15 K, m1 = 1.86 | 0.789
298.15 K, m1 = 1.865 | 0.787
298.15 K, m1 = 1.961 | 0.791
298.15 K, m1 = 2.166 | 0.801
308.15 K, m1 = 0.197 | 0.768
308.15 K, m1 = 0.2519 | 0.745
308.15 K, m1 = 0.2974 | 0.737
308.15 K, m1 = 0.3637 | 0.734
308.15 K, m1 = 0.4596 | 0.726
308.15 K, m1 = 0.5269 | 0.72
308.15 K, m1 = 0.5465 | 0.719
308.15 K, m1 = 0.5956 | 0.719
308.15 K, m1 = 0.6873 | 0.722
308.15 K, m1 = 0.7481 | 0.721
308.15 K, m1 = 0.8067 | 0.719
308.15 K, m1 = 0.8889 | 0.721
308.15 K, m1 = 0.9189 | 0.724
308.15 K, m1 = 1.088 | 0.73
308.15 K, m1 = 1.269 | 0.739
308.15 K, m1 = 1.541 | 0.751
308.15 K, m1 = 1.754 | 0.768
308.15 K, m1 = 1.933 | 0.777
308.15 K, m1 = 1.991 | 0.782
308.15 K, m1 = 2.108 | 0.792
308.15 K, m1 = 2.305 | 0.804
318.15 K, m1 = 0.2751 | 0.729
318.15 K, m1 = 0.3201 | 0.725
318.15 K, m1 = 0.3228 | 0.721
318.15 K, m1 = 0.4383 | 0.709
318.15 K, m1 = 0.4892 | 0.709
318.15 K, m1 = 0.596 | 0.705
318.15 K, m1 = 0.7938 | 0.704
318.15 K, m1 = 0.8879 | 0.707
318.15 K, m1 = 1.088 | 0.715
318.15 K, m1 = 1.261 | 0.72
318.15 K, m1 = 1.296 | 0.725
318.15 K, m1 = 1.643 | 0.749
318.15 K, m1 = 1.671 | 0.748
318.15 K, m1 = 1.72 | 0.754
318.15 K, m1 = 1.738 | 0.752
318.15 K, m1 = 1.869 | 0.763
318.15 K, m1 = 2.217 | 0.78
